Laboratory results from EP0888346B1, “CORALYNE ANALOGS AS TOPOISOMERASE INHIBITORS” (RUTGERS, THE STATE UNIVERSITY OF NEW JERSEY, priority 1996, dated 1997).
Converted amounts (≈) assume the structure as drawn. Read-outs that look alike come from different tables or passages of the source.

Assays:
[1] = tested on: calf thymus topoisomerase II; experiment: Topo II cleavage assay (plasmid YEpG DNA); format: biochemical; settings: concentration relative to VM-26 = 1 producing the same cleavage on the plasmid DNA
Description: The plasmid pET11a and the E. coli strain BL21(DE3) used for enzyme expression were purchased from Novagen. IPTG was purchased from Sigma. The ECL system used for the Western blotting analysis of bacterial lysates was from Amersham (UK). All the restriction enzymes and Vent polymerase were from New England Biolabs. Mammalian topoisomerase II was isolated from calf thymus glands according to the published procedure (Halligan et al., J. Biol. Chem. 260:2475-2482 (1985)). The single copy yeast plasmids YCpGAL1 expressing various topoisomerase I genes in JN2-134 yeast strain were a kind gift of Dr. M-A. Bjornsti (Thomas Jefferson University, Philadelphia, PA). All bacterial and yeast media were from Difco (Detroit, MI), while cell culture media were purchased from Gibco-BRL (Gaithersburg, MD).
(§1) Cleavage assays for the recombinant topoisomerases I and calf thymus topoisomerases I and II were done as described (Liu et al., J. Biol. Chem. 258:15365-15370 (1983)). The plasmid YEpG DNA used for the cleavage assays was prepared and labeled at its 3'-end using the published procedures.

[2] = tested on: Human lymphoblast RPMI 8402 cells; experiment: MTT-microtiter plate tetrazolinium cytotoxicity assay (MTA); format: cell-based; settings: Homo sapiens, RPMI 8402, 96 h
Description: (§2) The results were plotted and the IC50 then measured.

[3] = target: T1, recombinant CPT-K5 topoisomerase I (Homo sapiens, UniProt P11387, D533G); experiment: Cleavage assay with camptothecin-resistant mutant topo I; format: biochemical; settings: relative to wildtype human topoisomerase I
T1 construct: 15 amino acid vector-derived fusion (pET-11a leader); made in house; host or cells: E. coli BL21(DE3)
T1 sequence (P11387 1-765 D533G): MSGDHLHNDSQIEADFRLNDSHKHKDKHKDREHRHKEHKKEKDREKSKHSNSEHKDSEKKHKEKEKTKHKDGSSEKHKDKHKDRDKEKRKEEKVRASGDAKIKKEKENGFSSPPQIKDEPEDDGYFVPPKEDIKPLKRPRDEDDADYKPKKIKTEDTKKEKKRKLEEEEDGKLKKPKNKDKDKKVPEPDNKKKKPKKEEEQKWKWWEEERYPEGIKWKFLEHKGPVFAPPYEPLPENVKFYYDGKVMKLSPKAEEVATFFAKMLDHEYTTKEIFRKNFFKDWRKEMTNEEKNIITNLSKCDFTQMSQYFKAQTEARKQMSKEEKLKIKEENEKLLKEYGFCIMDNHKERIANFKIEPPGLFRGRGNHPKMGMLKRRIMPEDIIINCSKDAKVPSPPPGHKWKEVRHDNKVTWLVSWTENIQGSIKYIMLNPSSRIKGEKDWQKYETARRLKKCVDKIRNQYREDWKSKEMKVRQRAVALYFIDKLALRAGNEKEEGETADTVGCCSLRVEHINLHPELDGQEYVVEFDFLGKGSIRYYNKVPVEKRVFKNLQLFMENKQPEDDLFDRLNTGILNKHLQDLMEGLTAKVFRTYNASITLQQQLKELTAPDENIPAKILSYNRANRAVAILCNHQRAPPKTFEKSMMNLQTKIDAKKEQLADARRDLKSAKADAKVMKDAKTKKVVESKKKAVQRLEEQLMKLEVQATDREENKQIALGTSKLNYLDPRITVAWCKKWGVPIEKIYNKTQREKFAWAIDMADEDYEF
Method: as §1

[4] = tested on: yeast cells expressing functional yeast topoisomerase I; experiment: Yeast cytotoxicity assay, strain expressing wild-type yeast topo I; format: cell-based, S. cerevisiae; settings: plates with 1 µM drug (camptothecin 0.5 µM), 3 days at 30°C
Description: It has been established that yeast can survive when topoisomerase I function is obliterated, and that the topoisomerase I poisons only kill cells having a functional topoisomerase I (Bjornsti et al. Cancer Res. 49:6318-6323 (1989)).
The topoisomerase I-specific in vivo cytotoxicity assay was adapted from Knab et al. (Knab et al., J. Biol. Chem. 268:22322-22330 (1993)). In this system, various topo I genes cloned into the single copy yeast plasmid vector, YCpGAL1 (Knab et al., J. Biol. Chem. 268:22322-22330 (1993)), are expressed under the control of the GAL1 promoter in the JN2-134 strain of S. cerevisiae (MATa, rad52::LEU2, trp1, ade2-1,his7, ura3-52, isel, top1-1, leu2) (Bjornsti et al., Cancer Res. 49:6318-6323 (1989)). The topo I constructs in the vector are, respectively, the wild-type yeast topo I (YCpGAL-ScTOP1), a non-functional yeast topo I where the active site tyrosine-727 is mutated to a phenylalanine (YCpGAL1-Sctop1Y727F) (Knab et al., J. Biol. Chem. 268:22322-22330 (1993)), and the wild type human topoisomerase I (YCpGAL-hTOP1) (Bjornsti et al., Cancer Res. 49:6318-6323 (1989)). To qualitatively test the cytotoxicity and the topo I specificity of the drugs, yeast cells containing the specific plasmid were serially diluted (5-fold) and were grown in dropout medium supplemented with uracil and 2% galactose In addition, the plates contained: A: Control, no drug in the plate; B: Camptothecin (CPT), 0.5 µM; C: Coralyne, 1 µM; D: Methylenedioxy-dihydro-demethyl-coralyne (MDD-Coralyne), 1 µM, and E: Nitidine, 1 µM. The plates were grown for 3 days at 30°C to assess the lethal effect of the different compounds on the various topoisomerase I enzymes expressed in S. cerevisiae.and the drug being tested.

[5] = tested on: glioblastoma cell line SF-268; experiment: MTA cytotoxicity assay, glioblastoma cells; format: cell-based; settings: Homo sapiens, SF-268, 96 h, read-out: Cytotoxicity SF-268
Method: as §2
The coralyne analog 7c was tested for its effectiveness against glioblastoma cells. The assay used was similar to that described above for the RPMI-8402 cell line. The results are shown in table 2 below which compares the effect of Compound 7c against the leukemia cell line (RPMI 8402), epidermal carncinoma (KB3-1) and glioblastoma (SF-268): Table 2

CC[C@@]1(O)C(=O)OCc2c1cc1n(c2=O)Cc2cc3ccccc3nc2-1 [CPT, camptothecin, reference compound]
Topo II-mediated DNA cleavage (REC, Relative Effective Concentration) [1]: >1000
IC50 ([2]; read-out: Cytotoxicity IC50 RPMI): 4 nM
IC50 ([2]; read-out: Cytotoxicity RPMI 8402): 3 ng/mL
resistance of recombinant CPT-K5 topoisomerase I to the drug [3]: over 1000 fold
cytotoxicity against yeast cells expressing functional yeast topoisomerase I (in words) [4]: quite sensitive
IC50 [5]: 5 ng/mL (≈ 0.0144 µM)
